Data as given in PubChem BioAssay (NCI).
Several values for one entry are separate records, joined by “and”; a condition that tells them apart may be missing. Equal values may be shown once.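 Results reflect a 48-hour exposure of cells in 96-well plates to compound at five concentrations. The concentration for 50% growth inhibition is given as GI50. TGI denotes the concentration required for complete inhibition of growth.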

What was measured:
Assay in all cases: NCI tumour cell line growth inhibition, 48 h
[1] = tested on: A498 renal
[2] = tested on: A549 NSCLC
[3] = tested on: ACHN renal
[4] = tested on: CAKI-1 renal
[5] = tested on: NCI-H23 lung
[6] = tested on: SW-620 colon
[7] = tested on: DLD-1 colon
[8] = tested on: DMS 114 small cell lung
[9] = tested on: DMS 273 small cell lung
[10] = tested on: M19-MEL melanoma
[11] = tested on: SNB-78 CNS
[12] = tested on: HOP-18 NSCLC
[13] = tested on: XF 498 CNS

CC(Oc1ccc(Cl)cc1Cl)C(=O)NN1C(=O)CC(=O)N(c2ccccc2)C1=S (centres undefined)
TGI [1]: 95.1 µM
TGI [2]: > 100 µM
TGI [3]: > 100 µM
TGI [4]: > 100 µM
TGI [5]: > 100 µM
TGI [6]: > 100 µM

CCc1n[nH]c(=O)n1/N=C(\C)c1ccccc1
TGI [1]: > 100 µM
TGI [2]: > 100 µM
TGI [3]: > 100 µM
TGI [4]: > 100 µM
TGI [5]: > 100 µM
TGI [6]: > 100 µM

COc1ccc(CCn2cncn2)cc1
TGI [2]: > 100 µM
TGI [3]: > 100 µM
TGI [7]: > 100 µM
TGI [8]: > 100 µM
TGI [9]: > 100 µM
TGI [10]: > 100 µM
TGI [5]: > 100 µM
TGI [11]: > 100 µM
TGI [6]: > 100 µM

COC(=O)c1c(O)ccc2c1c1c(n2Cc2cc(OC)cc(OC)c2)C(=O)c2ccccc2C1=O
TGI [1]: > 100 µM
TGI [2]: 31.3 µM
TGI [3]: 56.1 µM
TGI [4]: 56.7 µM
TGI [5]: 27 µM
TGI [6]: > 100 µM

COc1ccc2nc3cc(Cl)ccc3c(NCCCN3CCN(CCCNc4ccc5nnn6c7ccccc7c(=O)c4c56)CC3)c2c1
TGI [1]: > 25 µM
TGI [2]: > 25 µM
TGI [4]: > 15.8 µM
TGI [5]: > 25 µM
TGI [6]: > 25 µM

CN(C)c1ccc(-c2ccc(-c3ccc(C(=N)N)cn3)o2)cc1
GI50 [2]: 1.89 µM
TGI [2]: 3.75 µM
GI50 [3]: 1.75 µM
TGI [3]: 3.13 µM
GI50 [6]: 0.774 µM
TGI [6]: 2.41 µM

C=C1C(O)C2(O)OCC34C(CC5C(C)=CC(=O)C(O)C5(C)C23)OC(=O)C(OC(=O)C/C=C/CCCCCCCC)C14 (centres undefined)
TGI [1]: 0.0324 µM
TGI [2]: 0.0918 µM
TGI [4]: 0.232 µM
TGI [7]: 0.0287 µM
TGI [8]: 0.0205 µM
TGI [9]: 0.0964 µM
TGI [12]: 1.1 µM
TGI [10]: 0.0244 µM
TGI [5]: 0.0815 µM
TGI [11]: 0.057 µM
TGI [6]: 0.0471 µM
TGI [13]: 0.0351 µM

CN(CCc1ccccn1)c1ccc2c(c1)C(=O)c1ccccc1-2
TGI [1]: > 100 µM
TGI [2]: > 100 µM
TGI [3]: > 100 µM
TGI [4]: > 100 µM
TGI [5]: > 100 µM
TGI [6]: > 100 µM

O=C1c2c(Br)sc(Br)c2[C@@H](O)[C@H]1O
TGI [1]: > 100 µM
TGI [2]: 45 µM
TGI [3]: 33.5 µM
TGI [4]: 33.7 µM
TGI [5]: 21 µM
TGI [6]: 12.3 µM

N#C/C(=C(/O)CCl)c1nc2ccccc2o1
TGI [1]: 4.4 µM
TGI [2]: 34.8 µM
TGI [4]: 22.6 µM
TGI [5]: 25.4 µM
TGI [6]: > 100 µM

Cc1ccc(-c2cn3c(nc4ccccc43)c(/C=C/c3ccco3)n2)cc1
TGI [1]: > 100 µM
TGI [2]: > 100 µM
TGI [3]: > 100 µM
TGI [5]: > 100 µM
TGI [6]: > 100 µM

COc1ccc(C2C3CCc4ccccc4C3=NN2S(=O)(=O)c2cccc(C(=O)O)c2OC)cc1 (centres undefined)
TGI [2]: > 100 µM
TGI [3]: 63.9 µM
TGI [4]: > 100 µM
TGI [5]: > 100 µM
TGI [6]: > 100 µM

O=c1c2cc(O)ccc2n2nnc3ccc(NCCNCCO)c1c32
GI50 [1]: 25.1 µM and 6.77 µM
TGI [1]: > 87.4 µM and 16.7 µM
GI50 [2]: 22.9 µM and 5.95 µM
TGI [2]: > 100 µM and 28.9 µM
GI50 [3]: 7.68 µM and 3.58 µM
TGI [3]: > 64.8 µM and 22.1 µM
TGI [4]: 43 µM and > 61.9 µM
GI50 [7]: 23.9 µM and 6.6 µM
TGI [7]: > 100 µM and 40.7 µM
TGI [8]: 14.8 µM and 9.51 µM
TGI [9]: > 59.3 µM
TGI [12]: > 100 µM and 69.1 µM
GI50 [10]: 6.8 µM and 2.68 µM
TGI [10]: 20.7 µM and 12.1 µM
TGI [5]: 42.3 µM and 20.2 µM
GI50 [11]: 4.78 µM and 2.11 µM
TGI [11]: > 55.9 µM and 14.4 µM
GI50 [6]: 5.16 µM and 1.55 µM
TGI [6]: > 88.5 µM and 14.8 µM
TGI [13]: 12.4 µM

CC(Oc1ccccc1Cl)C(=O)NN1C(=O)CC(=O)N(c2ccc(Cl)cc2)C1=S (centres undefined)
TGI [1]: 72.9 µM
TGI [2]: > 100 µM
TGI [3]: > 100 µM
TGI [4]: > 100 µM
TGI [5]: > 100 µM
TGI [6]: > 100 µM

CC(=O)c1ccc(Nc2c3ccccc3nc3occc23)cc1
TGI [1]: 12.6 µM
TGI [2]: > 35.1 µM
TGI [3]: > 72.5 µM
TGI [4]: 4.68 µM
TGI [5]: 17.1 µM
TGI [6]: > 100 µM

COc1cc(C2S/C(=C/c3ccccc3)C(=O)N2c2cccc(NC(C)=O)c2)cc(OC)c1OC (centres undefined)
TGI [1]: 93.7 µM
TGI [2]: > 100 µM
TGI [3]: > 100 µM
TGI [4]: > 100 µM
TGI [5]: > 100 µM
